From PubChem BioAssay (NCI)
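Assay format: 96-well plates, 48-hour exposure. At the GI50, growth is halved. TGI is the concentration that stops growth completely.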

How the values were obtained:
Test in all cases: DTP human tumour cell line panel, 48 h
ACHN renal = test system: ACHN renal
HL-60(TB) leukemia = test system: HL-60(TB) leukemia
HOP-62 NSCLC = test system: HOP-62 NSCLC
MCF7 breast = test system: MCF7 breast
MDA-MB-435 = test system: MDA-MB-435
OVCAR-5 ovarian = test system: OVCAR-5 ovarian
SNB-75 CNS = test system: SNB-75 CNS
SW-620 colon = test system: SW-620 colon
T-47D breast = test system: T-47D breast
TK-10 renal = test system: TK-10 renal

| Structure (SMILES) | GI50 (ACHN renal) [µM] | TGI (ACHN renal) [µM] | GI50 (HL-60(TB) leukemia) [µM] | TGI (HL-60(TB) leukemia) [µM] | GI50 (HOP-62 NSCLC) [µM] | TGI (HOP-62 NSCLC) [µM] | GI50 (MCF7 breast) [µM] | TGI (MCF7 breast) [µM] | GI50 (MDA-MB-435) [µM] | TGI (MDA-MB-435) [µM] | GI50 (OVCAR-5 ovarian) [µM] | TGI (OVCAR-5 ovarian) [µM] | GI50 (SNB-75 CNS) [µM] | TGI (SNB-75 CNS) [µM] | GI50 (SW-620 colon) [µM] | TGI (SW-620 colon) [µM] | GI50 (T-47D breast) [µM] | TGI (T-47D breast) [µM] | GI50 (TK-10 renal) [µM] | TGI (TK-10 renal) [µM] |
| --- | --- | --- | --- | --- | --- | --- | --- | --- | --- | --- | --- | --- | --- | --- | --- | --- | --- | --- | --- | --- |
| Cc1ccc(C(=O)NC2CCCCC2)cc1-c1ccc(C(=O)NCC2CC2)cc1 | > 25 | > 25 | > 25 | > 25 | > 25 | > 25 | > 23.9 | > 25 | > 25 | > 25 | > 25 | > 25 | > 25 | > 25 | > 25 | > 25 | 9.51 | > 25 | > 25 | > 25 |
| CC[C@H](C)C(=O)O[C@H]1CCC=C2C=C[C@H](C)C(CCC3C[C@@H](O)CC(=O)O3)[C@H]21 (stereo partly drawn) | 1.7 | > 100 | 11.7 | 52.9 | 18.1 | > 100 | 39.5 | > 100 | 39.3 | > 100 | 20.8 | > 100 | 1.33 | 7.85 | 12 | > 100 |  | > 100 | 18.5 | > 100 |
| CO[C@H]1CC[C@@]2(C)C(=CC[C@H]3[C@@H]4C[C@H](O)C[C@@]4(C)CC[C@@H]32)C1 | 8.2 | 28.3 | 3.69 | 66.7 | 10.2 | 52.4 | 5.32 | 25.3 | 1.26 | 6.89 | 20.2 | 44.1 | 3.41 | 23 | 3.38 | 15 | 8.33 | 31.8 | 4.74 | 17.9 |
| CC(=O)OCC1OC(S[As](C)C)C(OC(C)=O)C1OC(C)=O (stereo not drawn) | 0.215 | 0.831 | 0.0813 | 0.648 | 3.35 | 15.2 | 0.304 | 1.11 | 0.0672 | 0.301 | 0.481 | 2.17 | 0.511 | 1.99 | 0.302 | 1.47 | 0.62 | 17.3 | 0.231 | 0.843 |
| CCCC(=O)NNc1[nH]c(-c2ccc(OC)cc2)cc1C(=O)OCC | 10.9 | 22.9 | 3.1 | 93.2 | > 100 | > 100 | 17.7 | 35.3 | 15.6 | 31.6 | 23.7 | 44.4 | 15.4 | 29.4 | 3.54 | 12.6 | 15.3 | 48.6 | 15.9 | 30.1 |
| Nc1nccc(Nc2ccc(S(N)(=O)=O)cc2)n1 |  | > 100 |  | > 100 |  | > 100 |  | > 100 |  | > 100 |  | > 100 |  | > 100 |  | > 100 |  | > 100 |  | > 100 |
| COC(=O)Nc1nc2ccc(Oc3ccc(NC(=O)Nc4cccc(Cl)c4)cc3)cc2[nH]1 | 2.23 | > 18.6 | 0.859 | 2.92 | 0.9 | 4.73 | 0.307 | 4.75 | 0.0755 | 0.315 | 4.04 | > 25 | 0.689 | 8.36 | 0.975 | 9.85 | 1.02 | 5.65 | 4 | 11.6 |
| O=C1/C(=C/c2ccc(Cl)cc2)CN(C(=O)C(Cl)Cl)C/C1=C\c1ccc(Cl)cc1 | 0.214 | 0.475 | 0.291 |  | 0.288 | 0.94 | 0.0441 | 0.56 | 0.194 | 0.396 | 0.287 | 0.799 | 0.161 | 0.509 | 0.04 | 0.231 | 0.297 | 1.62 | 0.374 | 1.52 |
| O=C(O)CC1(C(=O)O)CCCCC1 |  | > 100 |  | > 100 |  | > 100 |  | > 100 |  | > 100 |  | > 100 |  | > 100 |  | > 100 |  | > 100 |  | > 100 |
| O=C1/C(=C/C(Cl)=C/c2ccccc2)SC(=S)N1CCc1ccc(O)cc1 | 1.67 | 3.6 | 1.5 | > 100 | 3.15 | 12.2 | 1.85 | 16.9 | 1.61 | 4.27 | 2.02 | 3.91 | 1.31 | 5.62 | 1.43 | 3.9 | 2.02 | 5.61 | 2.39 | 5.49 |
| CCNc1nc(N2CC(=O)Nc3cc(OC)ccc32)c2ccccc2n1 | 0.00139 | > 100 | 0.000235 | 0.000581 | 0.00227 | 14.2 | 0.000369 | > 100 | 0.000193 | 0.000442 | 0.0107 | > 100 | 0.000433 | > 100 | 0.000378 | > 100 | 0.253 | 52.9 | 0.0822 | > 100 |
| CN(CCC(=O)O)S(=O)(=O)c1ccccc1 |  | > 100 |  | > 100 |  | > 100 |  | > 100 |  | > 100 |  | > 100 |  | > 100 |  | > 100 |  | > 100 |  | > 100 |
| CN(C)CC1CCn2c(c(C3=C(c4cn(C)c5ccccc45)C(=O)NC3=O)c3ccccc32)C1 (stereo not drawn) | 3.88 | 7.9 | 5.87 | 11.2 | 4.55 | 8.91 | 4.31 | 8.03 | 3.7 | 7.49 | 4.61 | 12.8 | 0.772 | 5.28 | 4.16 | 8.32 | 5.1 | 10.7 | 3.03 | 7.27 |
| COc1ccc(F)cc1C(=O)c1cnc(NC2CCN(S(C)(=O)=O)CC2)nc1N | 1.55 | > 21.4 | 1.66 | 18.1 | 5.42 | > 20.6 | 0.18 | > 25 | 2.39 | > 25 | 1.4 | > 14.7 | 3.97 | 10.2 | 0.636 | > 16.6 | 4.49 | > 22.6 | 1.83 | 14.7 |
| Clc1ccc(CO/N=C(\Cn2ccnc2)c2ccc(Cl)cc2Cl)c(Cl)c1 | 1.76 | 3.17 | 2.08 | 4.62 | 1.56 | 2.9 | 1.54 | 3.02 | 1.66 | 3.19 | 1.67 | 3.26 | 1.65 | 3.22 | 1.55 | 3.2 | 1.77 | 3.36 | 1.81 | 3.25 |
| CO[C@H](C(=O)N[C@@H](CCCCNC(=O)OCc1ccccc1)C(=O)OC(C)(C)C)[C@@H]1Cc2cc3cc(OC4CC(OC5CC(O)C(O)C(C)O5)C(O)C(C)O4)c(C)c(O)c3c(O)c2C(=O)[C@H]1OC1CC(OC2CC(OC3CC(C)(O)C(O)C(C)O3)C(O)C(C)O2)C(O)C(C)O1 (stereo partly drawn) | 0.67 | 4.45 | 0.971 | 5.92 | 0.464 | 2.73 | 0.281 | 2.03 | 0.805 | 2.28 | 0.976 | 2.82 | 0.541 | 1.97 | 0.441 | 3.34 | 0.958 | > 10 | 1.15 | > 10 |
| Cc1ccc(NC(=O)c2ccnc(N3CCCC3)c2)cc1-c1ccc(C(=O)NCC2CC2)cc1 | > 25 | > 25 | > 25 | > 25 | > 25 | > 25 | > 25 | > 25 | > 25 | > 25 | > 25 | > 25 | > 21.7 | > 25 | > 25 | > 25 | > 13.5 | > 25 | > 25 | > 25 |
| COC(=O)C#Cc1ccc([N+](=O)[O-])cc1 |  | 2.9 |  | 4.32 |  | 6.87 |  | 9.04 |  | 5.57 |  | 4.34 |  | 7.34 |  | 3.78 |  | 11.4 |  | 3.79 |
| [N-]=[N+]=CC(=O)OCC(N)C(=O)O (stereo not drawn) | 1.7 | > 100 | 0.918 | > 100 | 2.26 | > 100 | 0.456 | > 100 | 0.457 | > 100 | 0.971 | > 100 | 2.68 | > 100 | 0.649 | > 100 | 12.4 | > 100 | 0.573 | > 100 |
| O=C(/C=C\Sc1nccc(C(F)(F)F)n1)c1ccc(Br)cc1 | 15.9 | 29.7 | 0.84 | 20.8 | > 100 | > 100 | 28 | 84.8 | 26.2 | 78 | 21.8 | 70.7 | 28.9 | > 100 | 30.5 | > 100 | 11.2 | 38.5 | 26.4 | 59.6 |
| C/C(=C\c1c[nH]c2ccccc12)[N+](=O)[O-] | 4.36 | 16.6 | 2.3 | 6.46 | 4.04 | 13.6 | 2.67 | 28 | 5.56 | 20.1 | 19.3 | 34 | 1.89 | 6.93 | 5.78 | 26 | 4.27 | 22.2 | 10.8 | 24.5 |
| CN1CCN(Cc2ccc(NC(=O)c3cncc(C#Cc4c(N)ncc5cc(F)ccc45)c3)cc2C(F)(F)F)CC1 | 1.99 | 8.84 | 0.289 | 1.49 | 2.4 | 12 | 0.591 | 1.35 | 0.532 | 1.15 | 1.06 | 3.55 | 2.02 | 7.84 | 0.529 | 1.4 | 6.57 | 20.2 | 2.08 | 4.43 |
| COc1cccc2c1c1nc3cc(C)c(C)cc3nc1n2CCN(C)C | 0.433 | 10.3 | 2.09 | 6.57 | 1.72 | 11 | 2.13 | 10.9 | 1.83 | 4.14 | 2.4 | 9.48 | 1.1 | 5.56 | 0.805 | 11.3 | 2.76 | 13.6 | 2.95 | 11.5 |
| O=C(Nc1ccc(Br)c(Cl)c1)c1cc(F)ccc1O | 0.61 | > 14.4 | 0.97 | 2.83 | 0.893 | > 13.2 | 0.883 | > 50 | 1.01 | > 15.8 | 1.71 | > 50 | 0.591 | 4.53 | 1.2 | 9.67 | 0.638 | 13.4 | 1.92 | 29.8 |
